Legend:
[1] = Cytotoxicity against HEK293T cells assessed as reduction in cell viability after 48 hrs by CellTiter 96 aqueous one solution assay; format: cell-based, HEK-293T; conditions: human
[2] = test system: Human immunodeficiency virus 1; experiment: Selectivity ratio of IC50 for HIV1 reverse transcriptase K103N mutant in HIV1 infected HEK293T cells to IC50 for wild-type HIV1 reverse transcriptase in HIV1 infected HEK293T cells
[3] = test system: Human immunodeficiency virus 1; experiment: Selectivity ratio of IC50 for HIV1 reverse transcriptase Y181C mutant in HIV1 infected HEK293T cells to IC50 for wild-type HIV1 reverse transcriptase in HIV1 infected HEK293T cells
[4] = test system: Human immunodeficiency virus 1; experiment: Selectivity ratio of IC50 for HIV1 reverse transcriptase V106M mutant in HIV1 infected HEK293T cells to IC50 for wild-type HIV1 reverse transcriptase in HIV1 infected HEK293T cells

CCn1c(=O)[nH]c2cccc(Oc3cccc4ccccc34)c21
CC50 at 48 h [1]: 31.3 µM

CCCn1c(=O)[nH]c2cccc(Oc3cc(Cl)cc(C#N)c3)c21
CC50 at 48 h [1]: 24.8 µM

CCn1c(=O)[nH]c2cccc(Oc3cc(C#N)ccn3)c21
CC50 at 48 h [1]: > 100 µM

CC1(C)OC(=O)Nc2cccc(Oc3cc(Cl)cc(C#N)c3)c21
CC50 at 48 h [1]: 82.7 µM

CCC(c1ccccc1)n1c(=O)[nH]c2ccc(Cl)cc21 (racemic)
Ratio IC50 [2]: > 10 | CC50 at 48 h [1]: 55 µM | Ratio IC50 [3]: > 10

CCn1c(=O)[nH]c2cccc(Oc3cc(C)cc(C)c3)c21
CC50 at 48 h [1]: 7.16 µM

Cn1c(=O)[nH]c2cccc(Oc3cc(Cl)cc(C#N)c3)c21
CC50 at 48 h [1]: 53.4 µM | Ratio IC50 [4]: > 10

CCn1c(=O)[nH]c2cccc(Oc3cc(Cl)cc(C#N)c3)c21
CC50 at 48 h [1]: 24.1 µM | Ratio IC50 [4]: > 10

CCn1c(=O)[nH]c2cccc(Oc3cc(C#N)cc(C#N)c3)c21
CC50 at 48 h [1]: 96.6 µM

CCn1c(=O)[nH]c2cccc(Oc3ccnc(Cl)c3)c21
CC50 at 48 h [1]: 95.1 µM

CCn1c(=O)[nH]c2cccc(Oc3ccccc3)c21
CC50 at 48 h [1]: 55 µM

CCn1c(=O)[nH]c2cccc(Oc3ccnc(C#N)c3)c21
CC50 at 48 h [1]: > 100 µM

Cc1ccnc2c1NC(=O)c1cccnc1N2C1CC1 [NEVIRAPINE]
CC50 at 48 h [1]: 92.7 µM

CCn1c(=O)[nH]c2cccc(Oc3cc(C#N)cc(/C=C/C#N)c3)c21
CC50 at 48 h [1]: 9.7 µM

— ChEMBL document CHEMBL4330184, “Aryl Substituted Benzimidazolones as Potent HIV-1 Non-Nucleoside Reverse Transcriptase Inhibitors” (ACS Med Chem Lett, 2019)
